Results taken from ChEMBL document CHEMBL4138123, “Design, synthesis and biological evaluation of novel pyrazolochalcones as potential modulators of PI3K/Akt/mTOR pathway and inducers of apoptosis in breast cancer cells” (Eur J Med Chem, 2017).

Key:
Type in all cases: functional
UACC-257 = assay: Cytotoxicity against human UACC257 cells assessed as cell growth at 0.01 uM after 48 hrs by sulforhodamine B assay relative to control; settings: UACC-257, 48 h, read-out: Activity
BT-549 [1] = assay: Cytotoxicity against human BT549 cells assessed as cell growth at 0.1 uM after 48 hrs by sulforhodamine B assay relative to control; settings: BT-549, 48 h, read-out: Activity
COLO 205 = assay: Cytotoxicity against human COLO205 cells assessed as growth inhibition after 48 hrs by sulforhodamine B assay; settings: COLO 205, 48 h
MCF7 = assay: Cytotoxicity against human MCF7 cells assessed as cell growth at 100 uM after 48 hrs by sulforhodamine B assay relative to control; settings: MCF7, 48 h, read-out: Activity
OVCAR-4 [2] = assay: Cytotoxicity against human OVCAR4 cells assessed as cell growth at 10 uM after 48 hrs by sulforhodamine B assay relative to control; settings: OVCAR-4, 48 h, read-out: Activity
MDA-MB-468 = assay: Cytotoxicity against human MDA-MB-468 cells assessed as cell growth at 0.1 uM after 48 hrs by sulforhodamine B assay relative to control; settings: MDA-MB-468, 48 h, read-out: Activity
NCI-H23 [3] = assay: Cytotoxicity against human NCI-H23 cells assessed as cell growth at 0.01 uM after 48 hrs by sulforhodamine B assay relative to control; settings: NCI-H23, 48 h, read-out: Activity
HOP-62 [4] = assay: Cytotoxicity against human HOP62 cells assessed as cell growth at 100 uM after 48 hrs by sulforhodamine B assay relative to control; settings: HOP-62, 48 h, read-out: Activity
NCI-H322M = assay: Cytotoxicity against human NCI-H322M cells assessed as cell growth at 1 uM after 48 hrs by sulforhodamine B assay relative to control; settings: read-out: Activity
786-0 = assay: Cytotoxicity against human 786-0 cells assessed as cell growth at 0.01 uM after 48 hrs by sulforhodamine B assay relative to control; settings: 786-0, 48 h, read-out: Activity
T47D = assay: Cytotoxicity against human T47D cells assessed as growth inhibition after 48 hrs by sulforhodamine B assay
TK-10 = assay: Cytotoxicity against human TK10 cells assessed as cell growth at 0.1 uM after 48 hrs by sulforhodamine B assay relative to control; settings: TK-10, 48 h, read-out: Activity
SR = assay: Cytotoxicity against human SR cells assessed as cell growth at 0.01 uM after 48 hrs by sulforhodamine B assay relative to control; settings: read-out: Activity
Malme-3M [5] = assay: Cytotoxicity against human MALME-3M cells assessed as cell growth at 1 uM after 48 hrs by sulforhodamine B assay relative to control; settings: read-out: Activity
MDA-MB-435 [6] = assay: Cytotoxicity against human MDA-MB-435 cells assessed as growth inhibition after 48 hrs by sulforhodamine B assay; settings: MDA-MB-435, 48 h
NCI-H226 = assay: Cytotoxicity against human NCI-H226 cells assessed as cell growth at 100 uM after 48 hrs by sulforhodamine B assay relative to control; settings: NCI-H226, 48 h, read-out: Activity
HOP-62 [7] = assay: Cytotoxicity against human HOP62 cells assessed as cell growth at 10 uM after 48 hrs by sulforhodamine B assay relative to control; settings: HOP-62, 48 h, read-out: Activity
K562 [8] = assay: Cytotoxicity against human K562 cells assessed as growth inhibition after 48 hrs by sulforhodamine B assay; settings: K562, 48 h
MDA-MB-435 [9] = assay: Cytotoxicity against human MDA-MB-435 cells assessed as cell growth at 0.01 uM after 48 hrs by sulforhodamine B assay relative to control; settings: MDA-MB-435, 48 h, read-out: Activity
OVCAR-8 = assay: Cytotoxicity against human OVCAR8 cells assessed as cell growth at 10 uM after 48 hrs by sulforhodamine B assay relative to control; settings: OVCAR-8, 48 h, read-out: Activity
OVCAR-4 [10] = assay: Cytotoxicity against human OVCAR4 cells assessed as cell growth at 1 uM after 48 hrs by sulforhodamine B assay relative to control; settings: OVCAR-4, 48 h, read-out: Activity
SF-539 = assay: Cytotoxicity against human SF539 cells assessed as cell growth at 1 uM after 48 hrs by sulforhodamine B assay relative to control; settings: SF-539, 48 h, read-out: Activity
OVCAR-5 = assay: Cytotoxicity against human OVCAR5 cells assessed as cell growth at 100 uM after 48 hrs by sulforhodamine B assay relative to control; settings: OVCAR-5, 48 h, read-out: Activity
SW-620 = assay: Cytotoxicity against human SW620 cells assessed as cell growth at 100 uM after 48 hrs by sulforhodamine B assay relative to control; settings: SW-620, 48 h, read-out: Activity
BT-549 [11] = assay: Cytotoxicity against human BT549 cells assessed as cell growth at 10 uM after 48 hrs by sulforhodamine B assay relative to control; settings: BT-549, 48 h, read-out: Activity
SK-OV-3 = assay: Cytotoxicity against human SKOV3 cells assessed as cell growth at 0.01 uM after 48 hrs by sulforhodamine B assay relative to control; settings: SK-OV-3, 48 h, read-out: Activity
IGROV-1 = assay: Cytotoxicity against human IGROV1 cells assessed as cell growth at 0.01 uM after 48 hrs by sulforhodamine B assay relative to control; settings: IGROV-1, 48 h, read-out: Activity
K562 [12] = assay: Cytotoxicity against human K562 cells assessed as cell growth at 100 uM after 48 hrs by sulforhodamine B assay relative to control; settings: K562, 48 h, read-out: Activity
Malme-3M [13] = assay: Cytotoxicity against human MALME-3M cells assessed as cell growth at 0.1 uM after 48 hrs by sulforhodamine B assay relative to control; settings: read-out: Activity
NCI-H460 [14] = assay: Cytotoxicity against human NCI-H460 cells assessed as cell growth at 1 uM after 48 hrs by sulforhodamine B assay relative to control; settings: NCI-H460, 48 h, read-out: Activity
KM12 = assay: Cytotoxicity against human KM12 cells assessed as cell growth at 0.1 uM after 48 hrs by sulforhodamine B assay relative to control; settings: KM12, 48 h, read-out: Activity
K562 [15] = assay: Cytotoxicity against human K562 cells assessed as cell growth at 10 uM after 48 hrs by sulforhodamine B assay relative to control; settings: K562, 48 h, read-out: Activity
NCI-H23 [16] = assay: Cytotoxicity against human NCI-H23 cells assessed as cell growth at 1 uM after 48 hrs by sulforhodamine B assay relative to control; settings: NCI-H23, 48 h, read-out: Activity
OVCAR-3 = assay: Cytotoxicity against human OVCAR3 cells assessed as cell growth at 0.01 uM after 48 hrs by sulforhodamine B assay relative to control; settings: OVCAR-3, 48 h, read-out: Activity
SN12C = assay: Cytotoxicity against human SN12C cells assessed as growth inhibition after 48 hrs by sulforhodamine B assay
NCI-H460 [17] = assay: Cytotoxicity against human NCI-H460 cells assessed as cell growth at 0.1 uM after 48 hrs by sulforhodamine B assay relative to control; settings: NCI-H460, 48 h, read-out: Activity

COc1cc(-c2cc(/C=C/C(=O)c3ccc(F)c(F)c3)[nH]n2)cc(OC)c1OC
growth at 0.01 µM (UACC-257): 88%
growth at 0.1 µM (BT-549 [1]): 105%
LC50 (COLO 205): 6 µM
TGI (COLO 205): 3.19 µM
growth at 100 µM (MCF7): -20%
growth at 10 µM (OVCAR-4 [2]): 17%
growth at 0.1 µM (MDA-MB-468): 94%
growth at 0.01 µM (NCI-H23 [3]): 95%
growth at 100 µM (HOP-62 [4]): 4%
growth at 1 µM (NCI-H322M): 86%
growth at 0.01 µM (786-0): 95%
LC50 (T47D): > 100 µM
TGI (T47D): 27 µM
growth at 0.1 µM (TK-10): 88%
growth at 0.01 µM (SR): 100%
growth at 1 µM (Malme-3M [5]): 97%
LC50 (MDA-MB-435 [6]): > 100 µM
TGI (MDA-MB-435 [6]): 13.3 µM
growth at 100 µM (NCI-H226): -65%
growth at 10 µM (HOP-62 [7]): 25%
LC50 (concentration killing 50% of cells) (K562 [8]): > 100 µM
TGI (K562 [8]): 16.5 µM
growth at 0.01 µM (MDA-MB-435 [9]): 98%
growth at 10 µM (OVCAR-8): 4%
growth at 1 µM (OVCAR-4 [10]): 67%
growth at 1 µM (SF-539): 90%
growth at 100 µM (OVCAR-5): -24%
growth at 100 µM (SW-620): 1%
growth at 10 µM (BT-549 [11]): 23%
growth at 0.01 µM (SK-OV-3): 98%
growth at 0.01 µM (IGROV-1): 97%
growth at 100 µM (K562 [12]): -7%
growth at 0.1 µM (Malme-3M [13]): 90%
growth at 1 µM (NCI-H460 [14]): 103%
growth at 0.1 µM (KM12): 92%
growth at 10 µM (K562 [15]): 2%
growth at 1 µM (NCI-H23 [16]): 90%
growth at 0.01 µM (OVCAR-3): 102%
LC50 (SN12C): > 100 µM
TGI (SN12C): 25.5 µM
growth at 0.1 µM (NCI-H460 [17]): 102%

COc1ccc(C(=O)/C=C/c2cc(-c3ccc4c(c3)OCO4)n[nH]2)cc1OC
growth at 0.01 µM (UACC-257): 91%
growth at 0.1 µM (BT-549 [1]): 99%
LC50 (COLO 205): 45.9 µM
TGI (COLO 205): 14 µM
growth at 100 µM (MCF7): -48%
growth at 10 µM (OVCAR-4 [2]): 18%
growth at 0.1 µM (MDA-MB-468): 90%
growth at 0.01 µM (NCI-H23 [3]): 90%
growth at 100 µM (HOP-62 [4]): -80%
growth at 1 µM (NCI-H322M): 92%
growth at 0.01 µM (786-0): 96%
GI50 (T47D): 3.23 µM
LC50 (T47D): > 100 µM
TGI (T47D): 26.1 µM
growth at 0.1 µM (TK-10): 92%
growth at 0.01 µM (SR): 90%
growth at 1 µM (Malme-3M [5]): 106%
LC50 (MDA-MB-435 [6]): 99 µM
TGI (MDA-MB-435 [6]): 10 µM
growth at 100 µM (NCI-H226): -20%
growth at 10 µM (HOP-62 [7]): -29%
LC50 (concentration killing 50% of cells) (K562 [8]): > 100 µM
TGI (K562 [8]): 16.7 µM
growth at 0.01 µM (MDA-MB-435 [9]): 98%
growth at 10 µM (OVCAR-8): -27%
growth at 1 µM (OVCAR-4 [10]): 65%
growth at 1 µM (SF-539): 88%
growth at 100 µM (OVCAR-5): -30%
growth at 100 µM (SW-620): -78%
growth at 10 µM (BT-549 [11]): -57%
growth at 0.01 µM (SK-OV-3): 99%
growth at 0.01 µM (IGROV-1): 100%
growth at 100 µM (K562 [12]): -12%
growth at 0.1 µM (Malme-3M [13]): 100%
growth at 1 µM (NCI-H460 [14]): 87%
growth at 0.1 µM (KM12): 99%
growth at 10 µM (K562 [15]): 4%
growth at 1 µM (NCI-H23 [16]): 85%
growth at 0.01 µM (OVCAR-3): 103%
LC50 (SN12C): 53.7 µM
TGI (SN12C): 13.6 µM
growth at 0.1 µM (NCI-H460 [17]): 102%
